Measured values published in patent US5336485A, “Method for protecting animals against tacrine induced cytotoxic injury using sterol compounds” (priority 1993, dated 1994).
Counter-ions that a name gives are not always drawn.

Tests used:
rat hepatocytes = assay: Cellular alpha-tocopherol and tocopherol ester content of rat hepatocytes; settings: for Hepatocyte Concentration Alpha-T / Hepatocyte Concentration Alpha-TS: EMS 3 h
Method: At each time-point, rapid separation of viable from non-viable hepatocytes and medium was accomplished by the dibutyl phthalate centrifugation method. Cell viability was monitored hourly by measuring LDH leakage with a Cobas Analyzer and intracellular [K^+ ]with a flame photometer. LDH was routinely measured in the medium while intracellular K^+ was measured in the 10% perchloric acid lysate of viable cells. Lipid peroxidation was determined by measuring TBA reactants in the medium. […] The samples were diluted with 0.3 ml 1% ascorbate in 0.1 M SDS, 0.4 ml ethanol, sonicated and extracted once with 0.8 ml hexane. Next, the hexane extract was evaporated to dryness with N2, the residue dissolved in 2.5% ascorbate in methanol (1 ml) and analyzed (100 μl) by high-performance liquid chromatograph (HPLC). […] The mobile phase, 95% MeOH was run isocratically and the HPLC retention times for delta and alpha-tocopherol were approximately eleven and sixteen minutes, respectively. […] Following the addition of 0.2 ml 4 M HC1, the neutralized KOH-MeOH extracted with 0.8 ml hexane. […] A standard curve for each tocopherol congener was run with every assay. […] Only viable cells were monitored in the laboratory procedures.
The hepatocytes were subsequently exposed to 50mM EMS for three hours.

male Sprague-Dawley rats [1] = assay: Energy status of rat tissue; type: in vivo; settings: 100 mg/kg ip, 24 h
Method: An in vivo experiment was performed to determine the effect of alpha-TS on the energy status of rat tissues. Male Sprague-Dawley rats were administered alpha-TS (100 mg/kg, single ip dose) or olive oil (vehicle only, 0.2 ml, single ip dose). Three rats were used per treatment. The rats fasted for 24 hours after ip dosage prior to sacrifice and analysis of tissues.

CDF1 mice = assay: Doxorubicin lethality in CDF1 mice (normal tissue); type: in vivo, mouse; settings: 100 mg/kg ip 20 h prior, DOX 10, 15, 20, 25 mg/kg
Method: The experiments were conducted in accordance with NCI Protocol 1,100. FIGS. 8a-d show the experimental results obtained when male CDF1 mice (n=6) received either vehicle only or 100mg/kg body weight i.p. dose of either alpha-TS or cholesteryl succinate 20 hours prior to DOX administration. FIGS. 8a-d respectively show the results obtained when the mice received 10, 15, 20, and 25 mg DOX/kg body weight. […] FIGS. 9a-d show the experimental results obtained when male CDF1 mice ([…]) were injected (i.p.) with 10^6 murine L1210 leukemia cells followed immediately by an injection of alpha-TS tris salt (100 mg/kg, i.p.) or saline injection (vehicle), and twenty hours later (Day=0) each mouse in three of the groups was i.p. injected with 15, 20, or 25 mg DOX/kg body weight ([…]). Survival was monitored for twenty days.

[2] = tested on: mouse melanoma cells B-16; settings: cited from earlier work
[3] = tested on: human neuroblastoma cells; settings: 10 μM; cited from earlier work
human prostate cells = settings: 10 μM; cited from earlier work
male Sprague-Dawley rats [4] = assay: Global liver ischemia/reperfusion-induced lethality in rats; type: in vivo, rat; settings: ip 20 h prior, global ischemia 60 min; CS 100 mg/kg; cholesterol 64 + tris succinate 100 mg/kg
Method: 20 hours prior to global occlusion, one group of 10 rats was provided with 64 mg cholesterol/kg body weight and 100 mg tris succinate/kg body weight by i.p. injection, and another group of 10 rats was provided with 100 mg cholesteryl succinate/kg body weight. A control group of rats was only partially occluded for the one hour period. Ninety percent of the rats pretreated with cholesteryl succinate tris salt survived while only 10% of those pretreated with the combination of cholesterol and tris succinate survived. Table 22 of a partial ischemia study where male Sprague-Dawley rats were subjected to occlusion of the blood supply to the left lateral and median lobes of the liver for 60 minutes followed by reperfusion for 24 hours. During this time, the normal blood supply to the other lobes of the liver was maintained. […] Serum was obtained for AST and ALT measurements.
^a Global (total) or partial liver ischemia was induced 20 hours

L1210 leukemia cells = settings: 100 mg/kg ip
[5] = 50 mM EMS + 25 μM alpha-TS + 100 μM Bis-(p-nitrophenyl) phosphate
[6] = 50 mM EMS + 25 μM alpha-TS + 100 μM Diethyl p-nitrophenyl phosphate

Cc1c(C)c2c(c(C)c1OC(=O)CCC(=O)O)CC[C@@](C)(CCC[C@H](C)CCC[C@H](C)CCCC(C)C)O2 [alpha-TS, d-alpha-tocopheryl succinate]
cellular alpha-TS content (rat hepatocytes; 0.5 μM): approximately 0.025 nmoles/10^6 cells | Hepatocyte Concentration Alpha-T (rat hepatocytes; 2.0 μM): 0.4 ± 0.1 nmol/10^6 cells | Hepatocyte Concentration Alpha-TS (rat hepatocytes; 2.0 μM): 0.2 ± 0.1 nmol/10^6 cells | Hepatocyte Concentration Alpha-T (rat hepatocytes; 10 μM): 0.8 ± 0.1 nmol/10^6 cells | Hepatocyte Concentration Alpha-TS (rat hepatocytes; 10 μM): 0.7 ± 0.1 nmol/10^6 cells | cellular accumulation rate of alpha-TS (rat hepatocytes; 25 μM dose): 1.65 nmol/10^6 cells/hr | cellular release rate of succinate (as measured by alpha-tocopherol release) (rat hepatocytes; 25 μM dose): 0.65 nmol/10^6 cells/hr | Hepatocyte Concentration Alpha-T (rat hepatocytes; 25 μM): 0.9 ± 0.1 nmol/10^6 cells | Hepatocyte Concentration Alpha-TS (rat hepatocytes; 25 μM): 2.5 ± 0.1 nmol/10^6 cells | Cellular Tocopherol ester (rat hepatocytes; 25 μM, Table 2): 2.6 nmoles/10^6 cells | Cellular alpha-T (rat hepatocytes; 25 μM, Table 2): 0.7 nmoles/10^6 cells | Hepatocyte Concentration Alpha-T (rat hepatocytes; 250 μM): 0.9 ± 0.1 nmol/10^6 cells | Hepatocyte Concentration Alpha-TS (rat hepatocytes; 250 μM): 7.6 ± 1.7 nmol/10^6 cells | Cellular alpha-T (rat hepatocytes; 50 mM EMS + 25 μM alpha-TS): .81 ± .05 nmoles/10^6 cells | Cellular alpha-TS (rat hepatocytes; 50 mM EMS + 25 μM alpha-TS): 2.73 ± .67 nmoles/10^6 cells | Cellular alpha-T (rat hepatocytes; [5]): .20 ± .05 nmoles/10^6 cells | Cellular alpha-TS (rat hepatocytes; [5]): 2.61 ± .61 nmoles/10^6 cells | Cellular alpha-T (rat hepatocytes; [6]): .19 ± .05 nmoles/10^6 cells | Cellular alpha-TS (rat hepatocytes; [6]): 2.56 ± .24 nmoles/10^6 cells | Hepatocyte Concentration Alpha-T (rat hepatocytes; .5 μM): 0.2 ± 0.1 nmol/10^6 cells | ATP, Blood (male Sprague-Dawley rats [1]): 647 ± 29 nmol/g | ATP, Brain (male Sprague-Dawley rats [1]): 293 ± 86 nmol/g | ATP, Heart (male Sprague-Dawley rats [1]): 2782 ± 868 nmol/g | ATP, Kidney (male Sprague-Dawley rats [1]): 515 ± 44 nmol/g | ATP, Liver (male Sprague-Dawley rats [1]): 458 ± 57 nmol/g | ATP, Lung (male Sprague-Dawley rats [1]): 418 ± 18 nmol/g | Glucose, Blood (male Sprague-Dawley rats [1]): 4.8 ± 0.3 µmol/g | Glucose, Heart (male Sprague-Dawley rats [1]): 10.1 ± 1.7 µmol/g | Glucose, Kidney (male Sprague-Dawley rats [1]): 3.4 ± 1.1 µmol/g | Glucose, Liver (male Sprague-Dawley rats [1]): 21.7 ± 9.7 µmol/g | Glucose, Lung (male Sprague-Dawley rats [1]): 4.1 ± 0.5 µmol/g | Glycogen, Blood (male Sprague-Dawley rats [1]): 117 ± 26 µmol/g | Glycogen, Brain (male Sprague-Dawley rats [1]): 1400 ± 372 nmol/g | Glycogen, Heart (male Sprague-Dawley rats [1]): 4320 ± 946 nmol/g | Glycogen, Kidney (male Sprague-Dawley rats [1]): 211 ± 44 µmol/g | Glycogen, Liver (male Sprague-Dawley rats [1]): 778 ± 98 µmol/g | Glycogen, Lung (male Sprague-Dawley rats [1]): 634 ± 133 µmol/g | Lactate, Blood (male Sprague-Dawley rats [1]): 1.68 ± .06 µmol/g | Lactate, Brain (male Sprague-Dawley rats [1]): 7.82 ± .20 µmol/g | Lactate, Heart (male Sprague-Dawley rats [1]): 10.84 ± 2.67 µmol/g | Lactate, Kidney (male Sprague-Dawley rats [1]): 3.10 ± .21 µmol/g | Lactate, Liver (male Sprague-Dawley rats [1]): 3.36 ± .20 µmol/g | Lactate, Lung (male Sprague-Dawley rats [1]): 2.24 ± .29 µmol/g | survival after DOX, normal mice (FIGS. 8a-d) (CDF1 mice): survived significantly longer | tumor cell growth ([2]; 10 μM): inhibits tumor cell growth | morphological differentiation [2]: induce morphological differentiation | tumor cell growth [3]: inhibits tumor cell growth | tumor cell growth (human prostate cells): inhibits tumor cell growth

CC(C)CCC[C@@H](C)[C@H]1CC[C@H]2[C@@H]3CC=C4C[C@@H](OC(=O)CCC(=O)O)CC[C@]4(C)[C@H]3CC[C@]12C [Cholesteryl Succinate tris salt]
% Survival (male Sprague-Dawley rats [4]): 90% | Survival Time (L1210 leukemia cells): 6.8 ± 0.4 days
